Source: the NIST ThermoML archive (doi:10.1016/j.tca.2006.01.020)

Test: molar heat capacity at constant pressure
Conditions: 101.33 kPa, Crystal, Small (less than 1 g) adiabatic calorimetry

[Ba+2].[Ce+4].[O-2].[O-2].[O-2] [barium cerium(IV) oxide]
Conditions | molar heat capacity at constant pressure [J/K/mol]
11.89 K | 0.651
12.09 K | 0.7
12.29 K | 0.744
12.5 K | 0.806
12.72 K | 0.859
12.93 K | 0.919
13.15 K | 0.983
13.37 K | 1.05
13.59 K | 1.12
13.82 K | 1.2
14.05 K | 1.28
14.28 K | 1.36
14.51 K | 1.45
14.74 K | 1.54
14.97 K | 1.63
15.21 K | 1.73
15.44 K | 1.83
15.68 K | 1.93
15.91 K | 2.05
16.15 K | 2.16
16.38 K | 2.26
16.6 K | 2.38
16.84 K | 2.51
17.09 K | 2.62
17.32 K | 2.75
17.55 K | 2.89
17.79 K | 3.02
18.03 K | 3.16
18.27 K | 3.3
18.52 K | 3.44
18.76 K | 3.58
19 K | 3.73
19.23 K | 3.89
19.47 K | 4.05
19.73 K | 4.19
19.98 K | 4.35
20 K | 4.411
20.2 K | 4.52
20.44 K | 4.68
20.69 K | 4.84
20.94 K | 5
21.17 K | 5.2
21.41 K | 5.36
21.66 K | 5.54
21.91 K | 5.7
22.16 K | 5.88
22.39 K | 6.07
22.63 K | 6.26
22.88 K | 6.44
23.14 K | 6.62
23.38 K | 6.81
23.62 K | 7
23.86 K | 7.2
24.1 K | 7.39
24.36 K | 7.58
24.61 K | 7.76
24.86 K | 7.96
25.1 K | 8.19
25.34 K | 8.4
25.6 K | 8.57
25.86 K | 8.77
26.1 K | 8.98
26.34 K | 9.19
26.57 K | 9.41
26.83 K | 9.6
27.09 K | 9.8
27.35 K | 9.96
27.6 K | 10.2
27.83 K | 10.4
28.07 K | 10.7
28.33 K | 10.8
28.59 K | 10.7
28.92 K | 11.3
29.29 K | 11.6
29.83 K | 12.1
30 K | 12.33
30.39 K | 12.6
30.99 K | 13.1
31.6 K | 13.6
32.23 K | 14.1
32.89 K | 14.7
33.56 K | 15.3
34.26 K | 15.9
34.97 K | 16.5
35.7 K | 17.1
36.44 K | 17.8
37.19 K | 18.4
37.95 K | 19.1
38.72 K | 19.8
39.5 K | 20.4
40 K | 21.08
40.3 K | 21.1
41.1 K | 21.8
41.92 K | 22.5
42.76 K | 23.2
43.61 K | 24
44.48 K | 24.7
